Assay results: patent US10206937B2, “Boronic acid derivatives and therapeutic uses thereof” (Qpex Biopharma, Inc., priority 2014, dated 2019)
Where two headings read alike, the source gives them in different places.

Experiments:
NDM-1 [1] = target: T1, NDM-1 (Klebsiella pneumoniae, UniProt C7C422); assay: biochemical
VIM-1 = target: T2, VIM-1 (Pseudomonas aeruginosa, UniProt A0A0F7KYQ8); assay: biochemical; conditions: cleavage of nitrocefin (200 uM) by VIM-1 supernatant
T2 construct: made in house; host or cells: ECM6711 strain carrying pUCP24-VIM-1 plasmid; culture supernatant used unpurified

OXA-48 = OXA-48 (Klebsiella pneumoniae, UniProt Q6XEC0); assay: Inhibition of purified class D carbapenemase OXA-48 (Ki, carbapenem substrates); assay type: biochemical
Sequence of OXA-48 (Q6XEC0 23-265, looked up): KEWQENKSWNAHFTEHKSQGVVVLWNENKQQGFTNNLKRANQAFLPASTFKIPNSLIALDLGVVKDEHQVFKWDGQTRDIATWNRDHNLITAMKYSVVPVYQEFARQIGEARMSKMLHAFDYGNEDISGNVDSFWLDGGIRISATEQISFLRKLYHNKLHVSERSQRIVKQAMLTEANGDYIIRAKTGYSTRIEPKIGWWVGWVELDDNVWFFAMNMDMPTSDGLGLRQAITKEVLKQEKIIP

[2] = target: T3, purified class A, C and D enzymes (UniProt P0AD64, L31Q/G234S/E235K, species not given); assay type: biochemical; conditions: read-out: Ki (SHV-12, NCF); purified SHV-12; nitrocefin reporter substrate
T3 construct: Ki (SHV-12, NCF); other: purified SHV-12; nitrocefin reporter substrate
T3 sequence (P0AD64 1-286 L31Q/G234S/E235K): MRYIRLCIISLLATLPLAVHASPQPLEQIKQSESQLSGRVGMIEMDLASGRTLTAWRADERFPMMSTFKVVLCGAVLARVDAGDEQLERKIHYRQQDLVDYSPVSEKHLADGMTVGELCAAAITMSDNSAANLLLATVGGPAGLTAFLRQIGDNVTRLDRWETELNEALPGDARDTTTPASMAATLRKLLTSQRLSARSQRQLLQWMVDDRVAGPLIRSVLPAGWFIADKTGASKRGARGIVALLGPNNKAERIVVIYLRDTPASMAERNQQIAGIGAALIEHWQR

[3] = target: T4, purified class A, C and D enzymes (UniProt Q48434); assay type: biochemical; conditions: read-out: Ki (CMY-2, NCF); purified CMY-2; nitrocefin reporter substrate
T4 construct: rows headed: Ki (CMY-2, NCF); other: purified CMY-2; nitrocefin reporter substrate

[4] = target: T5, purified class A, C and D enzymes (UniProt Q6XEC0); assay type: biochemical; conditions: read-out: Ki (OXA-48, NCF); purified OXA-48; nitrocefin reporter substrate
T5 construct: rows headed: Ki (OXA-48, NCF); other: purified OXA-48; nitrocefin reporter substrate

[5] = target: T6, purified class A, C and D enzymes (UniProt Q9F663); assay type: biochemical; conditions: read-out: Ki (KPC-2, NCF); purified KPC-2; nitrocefin reporter substrate
T6 construct: rows headed: Ki (KPC-2, NCF); other: purified KPC-2; nitrocefin reporter substrate

[6] = target: purified class A, C and D enzymes (Escherichia coli, UniProt Q9L5C7); assay type: biochemical
Sequence of purified class A, C and D enzymes (Escherichia coli, UniProt Q9L5C7) (Q9L5C7 entry or part of it): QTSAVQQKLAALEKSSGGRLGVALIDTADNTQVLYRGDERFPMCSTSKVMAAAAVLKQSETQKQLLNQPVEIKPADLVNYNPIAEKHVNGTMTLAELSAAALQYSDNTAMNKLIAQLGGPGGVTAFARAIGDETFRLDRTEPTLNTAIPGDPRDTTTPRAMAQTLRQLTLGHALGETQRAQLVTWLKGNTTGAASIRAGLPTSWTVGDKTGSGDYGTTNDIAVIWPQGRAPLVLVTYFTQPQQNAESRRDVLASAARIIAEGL

[7] = Serum stability of prodrugs: hydrolysis by human serum; assay type: in vitro ADME; conditions: prodrug; for Measured Initial Conc. in Serum: 37 degrees, sampled immediately
Description: (§1) Prodrug strategy is one of the ways to achieve or increase oral bioavailability for therapeutic drugs. Compound 62 was used as a template for various ester prodrugs. After a prodrug molecule is absorbed into systemic circulation, it should be hydrolyzed in the blood in order to release the active form. Hydrolysis of several prodrugs by rat and human serum were evaluated.
(§2) For all stability experiments the test compounds were treated with rat or human serum in Eppendorf tubes. Typically, 980 μl of serum was prewarmed at 37 degrees for 2 minutes and then 20 μl of a compound (at 1 mg/ml, 50×) was added to it to get a final concentration of 20 μg/ml and immediately mixed. Duplicate samples were tested. […] After vortexing for 30 seconds, the tube was centrifuged in a microcentrifuge for 10 minutes at 15K rpm. Next, 100 μl of the supernatant was combined with 600 μl of water and injected on LC-MS using 0.1% formic acid in water for mobile phase A and 0.1% formic acid in methanol for mobile phase B on an ACE 5 C18 2.1×100 mm column with a 10 μL it injection. The flow rate and gradient were adjusted as needed to give the desired resolution and run time. The pH of the mobile phase was adjusted if needed to improve the chromatography.
(§3) The time course of both the disappearance of a prodrug and the appearance of the active form of that prodrug is presented in Table 13 and Table 14. The active metabolites for all of the listed prodrugs are corresponding parent drugs

[8] = Serum stability of prodrugs: hydrolysis by rat serum; assay type: in vitro ADME; conditions: for Measured Initial Conc. in Serum / Conc. at t = 1 hr / Conc. at t = 3 hr: rat serum, prodrug; for Measured Initial Conc. in Serum: 37 degrees, sampled immediately
Description: as §1, §2, §3

NDM-1 [9] = target: T1, NDM-1; assay: Inhibition of purified class B carbapenemase NDM-1 (Ki, imipenem substrate); assay type: biochemical; conditions: NDM-1, substrate imipenem; read-out: Ki NDM-1, Imipenem
[10] = cleavage of biapenem (100 uM) by NDM-1, read-out: Ki, Biapenem
[11] = cleavage of imipenem (100 uM) by NDM-1, read-out: Ki, Imipenem
[12] = purified OXA-48, substrate biapenem, read-out: Ki OXA-48, Biapenem
[13] = cleavage of tebipenem (100 uM) by NDM-1, read-out: Ki, Tebipenem

T1 sequence (C7C422 29-270, looked up, species assumed): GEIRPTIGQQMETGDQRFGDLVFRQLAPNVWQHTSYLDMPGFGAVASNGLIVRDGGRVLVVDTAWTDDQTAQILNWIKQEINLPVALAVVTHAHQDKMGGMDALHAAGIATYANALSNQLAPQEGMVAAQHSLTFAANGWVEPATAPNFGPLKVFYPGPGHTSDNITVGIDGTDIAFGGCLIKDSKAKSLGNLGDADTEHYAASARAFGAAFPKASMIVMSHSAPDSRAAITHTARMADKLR

Row | Structure (SMILES) | Ki (NDM-1 [1]; [11]) [µM] | IC50 (VIM-1) [µM] | Ki (OXA-48; [12]) [µM] | Ki [2] [µM] | Ki [3] [µM] | Ki [4] [µM] | Ki [5] [µM] | Ki (NDM-1 [9]) [µM] | other results
1 | Cn1cnnc1S[C@H]1Cc2cccc(C(=O)O)c2OB1O [Compound 15, (R)-2-hydroxy-3-(4-methyl-4H-1,2,4-triazol-3-ylthio)-3,4-dihydro-2H-benzo[e][1,2]oxaborinine-8-carboxylic acid] | 0.01 to 0.1 | < 1 | < 0.01 | < 0.1 | < 0.1 | < 0.1 | 0.1 to 1 | – | Ki (NDM-1 [1]; [10]): 0.01 to 0.1 µM; Ki (NDM-1 [1]; cleavage of meropenem (100 uM) by NDM-1, read-out: Ki, Meropenem): 0.01 to 0.1 µM
2 | NC(=O)CC1Cc2cccc(C(=O)O)c2OB1O (centres unmarked) [Compound 22, 3-(2-amino-2-oxoethyl)-2-hydroxy-3,4-dihydro-2H-benzo[e][1,2]oxaborinine-8-carboxylic acid] | – | – | – | < 0.1 | < 0.1 | < 0.1 | < 0.1 | – | –
3 | O=C(O)[C@H]1/C(=C/CO)O[C@@H]2CC(=O)N21 [Clavulanic acid] | – | – | – | – | > 1 | > 1 | > 1 | – | Ki (CTX-M-14, NCF) [6]: X (key: X: Less than 0.1 μM; Y: 0.1 μM to 1 μM; Z: Greater than 1 μM)
4 | COc1ccc2c(c1C(=O)OCOC(=O)C(C)(C)C)OB(O)[C@@H](Sc1nncs1)C2 [Compound 125, 2,2-dimethylpropanoyloxymethyl (3R)-2-hydroxy-7-methoxy-3-(1,3,4-thiadiazol-2-ylsulfanyl)-3,4-dihydro-1,2-benzoxaborinine-8-carboxylate] | – | – | – | – | – | – | – | – | Measured Initial Conc. in Serum [7]: 41.8 µM; Conc. at t = 1 hr [7]: 27.4 µM; Conc. at t = 3 hr [7]: 41.4 µM; Measured Initial Conc. in Serum [8]: 37.6 µM; Conc. at t = 1 hr [8]: 28.5 µM; Conc. at t = 3 hr [8]: 48.2 µM
5 | NC(=O)CCS[C@H]1Cc2cccc(C(=O)O)c2OB1O [Compound 9, (R)-3-(3-amino-3-oxopropylthio)-2-hydroxy-3,4-dihydro-2H-benzo[e][1,2]oxaborinine-8-carboxylic acid] | > 0.1 | < 1 | 0.01 to 0.1 | 0.1 to 1 | < 0.1 | < 0.1 | < 0.1 | > 0.1 | –
6 | CCOC(=O)OCOC(=O)c1c(OC)ccc2c1OB(O)[C@@H](Sc1nncs1)C2 [Compound 124, ethoxycarbonyloxymethyl (3R)-2-hydroxy-7-methoxy-3-(1,3,4-thiadiazol-2-ylsulfanyl)-3,4-dihydro-1,2-benzoxaborinine-8-carboxylate] | – | – | – | – | – | – | – | – | Measured Initial Conc. in Serum [7]: 48.3 µM; Conc. at t = 1 hr [7]: 38.3 µM; Conc. at t = 3 hr [7]: 45.9 µM; Measured Initial Conc. in Serum [8]: 44.9 µM; Conc. at t = 1 hr [8]: 36.8 µM; Conc. at t = 3 hr [8]: 41.2 µM
7 | Nc1nnc(S[C@H]2Cc3cccc(C(=O)O)c3OB2O)s1 [Compound 4, (R)-3-(5-amino-1,3,4-thiadiazol-2-ylthio)-2-hydroxy-3,4-dihydro-2H-benzo[e][1,2]oxaborinine-8-carboxylic acid] | < 0.01 | < 1 | < 0.01 | < 0.1 | < 0.1 | < 0.1 | – | < 0.01 | Ki (NDM-1 [1]; [10]): < 0.01 µM; Ki (NDM-1 [1]; [13]): < 0.01 µM; Ki (OXA-48; cleavage of biapenem by OXA-48, read-out: Ki, Biapenem): < 0.01 µM; Ki (OXA-48; cleavage of doripenem by OXA-48, read-out: Ki, Doripenem): 0.01 to 0.1 µM; Ki (OXA-48; cleavage of imipenem by OXA-48, read-out: Ki, Imipenem): < 0.01 µM; Ki (OXA-48; cleavage of meropenem by OXA-48, read-out: Ki, Meropenem): > 0.1 µM; Ki (OXA-48; cleavage of tebipenem by OXA-48, read-out: Ki, Tebipenem): 0.01 to 0.1 µM
8 | O=C(O)c1cccc2c1OB(O)[C@@H](Sc1nccs1)C2 [Compound 11, (R)-2-hydroxy-3-(thiazol-2-ylthio)-3,4-dihydro-2H-benzo[e][1,2]oxaborinine-8-carboxylic acid] | > 0.1 | ≥ 1 | – | < 0.1 | < 0.1 | < 0.1 | – | > 0.1 | –
9 | NC(=O)CS[C@H]1Cc2cccc(C(=O)O)c2OB1O [Compound 3, (R)-3-(2-amino-2-oxoethylthio)-2-hydroxy-3,4-dihydro-2H-benzo[e][1,2]oxaborinine-8-carboxylic acid] | > 0.1 | – | < 0.01 | 0.1 to 1 | < 0.1 | < 0.1 | < 0.1 | > 0.1 | Ki (NDM-1 [1]; [10]): > 0.1 µM; Ki (NDM-1 [1]; [13]): > 0.1 µM
10 | COc1ccc2c(c1C(=O)OCOC(C)=O)OB(O)[C@@H](Sc1nncs1)C2 [Compound 123, acetoxymethyl (3R)-2-hydroxy-7-methoxy-3-(1,3,4-thiadiazol-2-ylsulfanyl)-3,4-dihydro-1,2-benzoxaborinine-8-carboxylate] | – | – | – | – | – | – | – | – | Measured Initial Conc. in Serum [7]: 51.7 µM; Conc. at t = 1 hr [7]: 43.4 µM; Conc. at t = 3 hr [7]: 30.7 µM; Measured Initial Conc. in Serum [8]: 51.5 µM; Conc. at t = 1 hr [8]: 26.1 µM; Conc. at t = 3 hr [8]: 8.6 µM; conversion of prodrug to active metabolite ([8]; serum species not given, 4 hour experiment): completely converted to active metabolite
11 | CC(=O)Nc1nnc(S[C@H]2Cc3cccc(C(=O)O)c3OB2O)s1 [Compound 7, (R)-3-(5-acetamido-1,3,4-thiadiazol-2-ylthio)-2-hydroxy-3,4-dihydro-2H-benzo[e][1,2]oxaborinine-8-carboxylic acid] | 0.01 to 0.1 | < 1 | < 0.01 | < 0.1 | < 0.1 | < 0.1 | – | 0.01 to 0.1 | –
12 | C[C@]1(Cn2ccnn2)[C@H](C(=O)O)N2C(=O)C[C@H]2S1(=O)=O [Tazobactam] | – | – | – | – | 0.1 to 1 | 0.1 to 1 | > 1 | – | –
13 | O=C(O)c1cccc2c1OB(O)[C@@H](Sc1nnc[nH]1)C2 [Compound 2, (R)-3-(4H-1,2,4-triazol-3-ylthio)-2-hydroxy-3,4-dihydro-2H-benzo[e][1,2]oxaborinine-8-carboxylic acid] | < 0.01 | < 1 | 0.01 to 0.1 | < 0.1 | 0.1 to 1 | < 0.1 | 0.1 to 1 | < 0.01 | Ki (NDM-1 [1]; [13]): 0.01 to 0.1 µM
